According to publication PMC11772155, “Solid-Phase-Supported Chemoenzymatic Synthesis and Analysis of Chondroitin Sulfate Proteoglycan Glycopeptides” (Angewandte Chemie (International ed. in English), 2024):
Read-outs that look alike come from different tables or passages of the source. Numbered stars: 1 amine (or outer) side, 2 acyl side, 3 side chain; on linkers, the order of the positions; unused ones are H or OH. Square brackets hold non-standard residues; d marks the D form. Peptide text beside a SMILES is read from it. * marks the point of attachment. X3 = CC(=O)N[C@H]1[C@H](O[C@H]2[C@H](O)[C@@H](O)[C@H](O[C@H]3[C@@H](O)[C@@H](CO)O[C@@H](O[C@H]4[C@H](O)[C@@H](O)[C@H](O[C@H]5[C@@H](O)[C@@H](CO)O[C@@H](O[C@H]6[C@H](O)[C@@H](O)[C@H](O[C@H]7[C@@H](O)[C@@H](CO)O[C@@H](O[C@H]8[C@H](O)[C@@H](O)[C@H](O[C@H]9[C@@H](O)[C@@H](CO)O[C@@H](O[C@H]%10[C@@H](O)[C@@H](CO)O[C@@H](O[C@@H]%11CO[C@@H](OC[C@H](N[*:1])C(=O)[*:2])[C@H](O)[C@H]%11O)[C@@H]%10O)[C@@H]9O)O[C@@H]8C(=O)O)[C@@H]7NC(C)=O)O[C@@H]6C(=O)O)[C@@H]5NC(C)=O)O[C@@H]4C(=O)O)[C@@H]3NC(C)=O)O[C@@H]2C(=O)O)O[C@H](CO)[C@H](O)[C@@H]1O[C@@H]1O[C@H](C(=O)O)[C@@H](O)[C@H](O)[C@H]1O; X2 = CC(=O)N[C@H]1[C@H](O[C@H]2[C@H](O)[C@@H](O)[C@H](O[C@H]3[C@@H](O)[C@@H](CO)O[C@@H](O[C@H]4[C@@H](O)[C@@H](CO)O[C@@H](O[C@@H]5CO[C@@H](OC[C@H](N[*:1])C(=O)[*:2])[C@H](O)[C@H]5O)[C@@H]4O)[C@@H]3O)O[C@@H]2C(=O)O)O[C@H](CO)[C@H](OS(=O)(=O)O)[C@@H]1O[C@@H]1O[C@H](C(=O)O)[C@@H](O[C@@H]2O[C@H](CO)[C@H](O)[C@H](O[C@@H]3O[C@H](C(=O)O)[C@@H](O)[C@H](O)[C@H]3O)[C@H]2NC(C)=O)[C@H](O)[C@H]1O; X4 = O=C(O)[C@H]1O[C@@H](O[C@H]2[C@@H](O)[C@@H](CO)O[C@@H](O[C@H]3[C@@H](O)[C@@H](CO)O[C@@H](O[C@@H]4CO[C@@H](*)[C@H](O)[C@H]4O)[C@@H]3O)[C@@H]2O)[C@H](O)[C@@H](O)[C@@H]1O

Target: T1, Human Neutrophil Cathepsin G (Homo sapiens, UniProt P08311)
T1 construct: Human Neutrophil Cathepsin G was purchased from Athens; purchased Athens Research & Technology, Inc. (Athens, Georgia)
T1 sequence (P08311 21-243 limits assumed): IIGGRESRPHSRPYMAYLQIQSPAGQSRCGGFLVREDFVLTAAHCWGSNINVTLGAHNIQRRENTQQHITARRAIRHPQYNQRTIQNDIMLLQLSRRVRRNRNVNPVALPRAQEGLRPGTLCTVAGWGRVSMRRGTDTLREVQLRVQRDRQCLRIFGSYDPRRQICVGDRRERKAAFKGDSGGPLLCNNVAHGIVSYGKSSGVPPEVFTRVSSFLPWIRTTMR
Assay: BLI (biolayer interferometry) binding assay of immobilized biotinylated compounds with Cathepsin G
Excerpt: With structurally defined glycopeptides in hand, we aim to better understand the structural features needed for bikunin glycopeptide binding. Cathepsin G (CatG), a neutrophil serine protease, plays a crucial role in regulating various physiological processes, including inflammation, digestion, smooth muscle contraction, and tissue remodeling.[64] While CatG has been reported to interact with CSPG, the structural requirement of CSPG binding has not been established.[25] To measure the binding affinity towards CatG, peptides 5 and glycopeptides 10, 18–21 were biotinylated and immobilized on streptavidin coated sensors for biolayer interferometry (BLI) studies. Biotinylated 50 kDa CS and CS-A were also immobilized on the sensors for comparison. […]
General procedure of glycopeptide biotinylation
To a solution of peptide or glycopeptide in DMSO/H 2O (1/1, 0.1 ml) was added NHS-LC-Biotin (4 equiv.) and diisoproylethylamine (pH ~ 8.5). The reaction was incubated at 37 °C for 2 h. Then the mixture was dried in vacuo and purified by HPLC.
General procedure for BLI binding assay
The binding assay was performed on the Octet K2 System (Pall ForteBio). The biotinylated compounds were incubated with streptavidin (SA) sensors for 2 min. The sensor was then balanced in the assay buffer (PBS containing 0.005% P20) and dipped into Cathepsin G solution in assay buffer at 2000 nM, 1000 nM, 500 nM, 250 nM concentrations.
After 5 min of association, the sensor was brought back to the previous assay buffer for a 5 min dissociation step. At the end of the assay, the sensor was regenerated in 2 M NaCl to remove the bound protein. Each measurement was repeated 3 times on the same sensor. The control assay was performed with another sensor loaded with a 2 mM biotin solution.
Figure S3. Binding of peptide and glycopeptides a) 5, b) 10 , c) 18 , d) 19 , e) 20 , f) 21 , g) commercially available biotinylated 50 kDa CS, and h) 50 kDa CS-A to neutrophil Cathepsin G as measured by BLI ( a-h respectively). The biotinylated compounds (50 nM) were immobilized on streptavidin coated biosensors, and human neutrophil Cathepsin G was captured on biosensors with four concentrations at 2000 nM, 1000 nM, 500 nM, 250 nM.
Fitting curves were shown in red lines. […]

[1] = biotinylated compounds immobilized on streptavidin sensors, Cathepsin G at 2000, 1000, 500, 250 nM in PBS containing 0.005% P20, read-out: KD (nM) with Cathepsin G

Row | Kd (read-out: KD (nM) with Cathepsin G, biotinylated compounds immobilized on streptavidin sensors, Cathepsin G at 2000, 1000, 500, 250 nM in PBS containing 0.005% P20) [nM] | SMILES | Kd [1] [nM]
1 |  | CC(C)C[C@H](NC(=O)[C@H](CCC(N)=O)NC(=O)CNC(=O)CNC(=O)CNC(=O)[C@H](CO[C@@H]1OC[C@@H](O[C@@H]2O[C@H](CO)[C@H](O)[C@H](O[C@@H]3O[C@H](CO)[C@H](O)[C@H](O[C@@H]4O[C@H](C(=O)O)[C@@H](O)[C@H](O)[C@H]4O)[C@H]3O)[C@H]2O)[C@H](O)[C@H]1O)NC(=O)CNC(=O)[C@H](CCC(=O)O)NC(=O)[C@H](CCC(=O)O)NC(=O)[C@H](CCC(=O)O)NC(=O)[C@H](CCC(N)=O)NC(=O)[C@@H]1CCCN1C(=O)[C@H](CC(C)C)NC(=O)[C@@H](NC(=O)[C@H](C)N)C(C)C)C(=O)N[C@H](C(=O)N[C@H](C(=O)N[C@@H](CCC(=O)O)C(=O)N[C@H](C(=O)N[C@H](C(=O)N[C@@H](CCCCN)C(=O)N[C@@H](CCCCN)C(=O)N[C@@H](CCC(=O)O)C(=O)N[C@@H](CC(=O)O)C(=O)N[C@@H](CO)C(=O)O)[C@@H](C)O)C(C)C)[C@@H](C)O)C(C)C [Compound 10] (H-AVLPQEEEGS(X4)GGGQLVTEVTKKEDS-OH) | 650 ± 80
2 |  | CC(=O)N[C@H]1[C@H](O[C@H]2[C@H](O)[C@@H](O)[C@H](O[C@H]3[C@@H](O)[C@@H](CO)O[C@@H](O[C@H]4[C@H](O)[C@@H](O)[C@H](O[C@H]5[C@@H](O)[C@@H](CO)O[C@@H](O[C@H]6[C@H](O)[C@@H](O)[C@H](O[C@H]7[C@@H](O)[C@@H](CO)O[C@@H](O[C@H]8[C@H](O)[C@@H](O)[C@H](O[C@H]9[C@@H](O)[C@@H](CO)O[C@@H](O[C@H]%10[C@@H](O)[C@@H](CO)O[C@@H](O[C@@H]%11CO[C@@H](OC[C@H](NC(=O)CNC(=O)[C@H](CCC(=O)O)NC(=O)[C@H](CCC(=O)O)NC(=O)[C@H](CCC(=O)O)NC(=O)[C@H](CCC(N)=O)NC(=O)[C@@H]%12CCCN%12C(=O)[C@H](CC(C)C)NC(=O)[C@@H](NC(=O)[C@H](C)N)C(C)C)C(=O)NCC(=O)NCC(=O)NCC(=O)N[C@@H](CCC(N)=O)C(=O)N[C@@H](CC(C)C)C(=O)N[C@H](C(=O)N[C@H](C(=O)N[C@@H](CCC(=O)O)C(=O)N[C@H](C(=O)N[C@H](C(=O)N[C@@H](CCCCN)C(=O)N[C@@H](CCCCN)C(=O)N[C@@H](CCC(=O)O)C(=O)N[C@@H](CC(=O)O)C(=O)N[C@@H](CO)C(=O)O)[C@@H](C)O)C(C)C)[C@@H](C)O)C(C)C)[C@H](O)[C@H]%11O)[C@@H]%10O)[C@@H]9O)O[C@@H]8C(=O)O)[C@@H]7NC(C)=O)O[C@@H]6C(=O)O)[C@@H]5NC(C)=O)O[C@@H]4C(=O)O)[C@@H]3NC(C)=O)O[C@@H]2C(=O)O)O[C@H](CO)[C@H](O)[C@@H]1O[C@@H]1O[C@H](C(=O)O)[C@@H](O)[C@H](O)[C@H]1O [Compound 18] (H-AVLPQEEEG[X3]GGGQLVTEVTKKEDS-OH; N-terminus and C-terminus assumed) | 490 ± 18
3 | 49 ± 5 | CC(=O)N[C@H]1[C@H](O[C@H]2[C@H](O)[C@@H](O)[C@H](O[C@H]3[C@@H](O)[C@@H](CO)O[C@@H](O[C@H]4[C@@H](O)[C@@H](CO)O[C@@H](O[C@@H]5CO[C@@H](OC[C@H](NC(=O)CNC(=O)[C@H](CCC(=O)O)NC(=O)[C@H](CCC(=O)O)NC(=O)[C@H](CCC(=O)O)NC(=O)[C@H](CCC(N)=O)NC(=O)[C@@H]6CCCN6C(=O)[C@H](CC(C)C)NC(=O)[C@@H](NC(=O)[C@H](C)N)C(C)C)C(=O)NCC(=O)NCC(=O)NCC(=O)N[C@@H](CCC(N)=O)C(=O)N[C@@H](CC(C)C)C(=O)N[C@H](C(=O)N[C@H](C(=O)N[C@@H](CCC(=O)O)C(=O)N[C@H](C(=O)N[C@H](C(=O)N[C@@H](CCCCN)C(=O)N[C@@H](CCCCN)C(=O)N[C@@H](CCC(=O)O)C(=O)N[C@@H](CC(=O)O)C(=O)N[C@@H](CO)C(=O)O)[C@@H](C)O)C(C)C)[C@@H](C)O)C(C)C)[C@H](O)[C@H]5O)[C@@H]4O)[C@@H]3O)O[C@@H]2C(=O)O)O[C@H](CO)[C@H](OS(=O)(=O)O)[C@@H]1O[C@@H]1O[C@H](C(=O)O)[C@@H](O[C@@H]2O[C@H](CO)[C@H](O)[C@H](O[C@@H]3O[C@H](C(=O)O)[C@@H](O)[C@H](O)[C@H]3O)[C@H]2NC(C)=O)[C@H](O)[C@H]1O [Compound 19] (H-AVLPQEEEG[X2]GGGQLVTEVTKKEDS-OH; N-terminus and C-terminus assumed) | 
